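1) Cells in 96-well plates. 2) Compound, 48 h, 5 concentrations. 3) Linear interpolation between surrounding doses. 4) Unreached endpoint = highest concentration. The concentration for 50% growth inhibition is given as GI50.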 Activity calls are given as the source filed them. Rule as the data show it: active = GI50 up to about 1.1 µM and inactive = higher.
Assays:
Experiment in all cases: inhibition of tumour cell growth, NCI panel, 48 h
[1] = system: MDA-MB-435
[2] = system: SK-MEL-28
[3] = system: OVCAR-8
[4] = system: SNB-75
[5] = system: RPMI-8226
[6] = system: Malme-3M
[7] = system: K562
[8] = system: HCT-15
[9] = system: NCI-H460
[10] = system: OVCAR-4
[11] = system: KM12
[12] = system: SNB-19
[13] = system: SK-MEL-2
[14] = system: MOLT-4
[15] = system: ACHN
[16] = system: NCI-H522
[17] = system: BT-549
[18] = system: IGROV-1
[19] = system: PC-3
[20] = system: 786-0
[21] = system: MDA-MB-231
[22] = system: RXF 393
[23] = system: CCRF-CEM
[24] = system: HOP-92
[25] = system: Hs-578T
[26] = system: NCI-H23
[27] = system: NCI/ADR-RES
[28] = system: MCF7
[29] = system: SF-295
[30] = system: CAKI-1
[31] = system: COLO 205
[32] = system: HL-60
[33] = system: EKVX
[34] = system: OVCAR-5
[35] = system: HCC 2998
[36] = system: UACC-62
[37] = system: T47D
[38] = system: SK-MEL-5
[39] = system: OVCAR-3
[40] = system: UO-31
[41] = system: HT-29
[42] = system: SF-268
[43] = system: SR
[44] = system: A498
[45] = system: SF-539
[46] = system: SW-620
[47] = system: HOP-62
[48] = system: UACC-257
[49] = system: MDA-N
[50] = system: M14
[51] = system: SN12C
[52] = system: TK-10
[53] = system: A549
[54] = system: SK-OV-3
[55] = system: DU-145
[56] = system: U-251
[57] = system: NCI-H226
[58] = system: LOX IMVI
[59] = system: HCT-116

Measured: GI50

COC(=O)c1csc([C@@H](OC(=O)[C@H](C)[C@H](CCCC(C)(Cl)Cl)OC(=O)c2csc([C@H](O)CO)n2)C(C)C)n1
inactive: [1] 13.6 µM | [2] 11.8 µM | [3] 4.61 µM | [4] 1.39 µM | [5] 15.2 µM | [6] 17.3 µM | [7] 16.4 µM | [9] 9.89 µM | [10] 10 µM | [11] 15.7 µM | [12] 13.6 µM | [13] 15.3 µM | [14] 16.3 µM | [15] 13.1 µM | [16] 16.8 µM | [17] 17.1 µM | [18] 11.3 µM | [19] 13.6 µM | [20] 14 µM | [21] 17.6 µM | [22] 1.89 µM | [23] 17.2 µM | [24] 10.7 µM | [25] 2.11 µM | [26] 16.4 µM | [27] 18.3 µM | [28] 18 µM | [29] 15.7 µM | [30] 17.7 µM | [31] 17.8 µM | [32] 17.9 µM | [33] 17.1 µM | [34] 15.5 µM | [35] 10.2 µM | [36] 11.6 µM | [37] 20.7 µM | [38] 17.9 µM | [39] 15 µM | [40] 6.93 µM | [41] 17.6 µM | [42] 17.7 µM | [43] 13.7 µM | [44] 18.3 µM | [45] 2.92 µM | [46] 17.9 µM | [47] 18.4 µM | [48] 11 µM | [49] 7.94 µM | [50] 17.8 µM | [51] 1.99 µM | [52] 12.4 µM | [53] 17.9 µM | [54] 16.2 µM | [55] 12.3 µM | [56] 17.8 µM | [57] 19.2 µM | [58] 10.5 µM
16.4 µM: [8]

CC1OC2/C=C\CC(O)C(C)(C)C3CCC(C)C4(O3)O[B-]35OC(C(=O)OC1C2)C1(OC(CCC1C)C(C)(C)C(O)C/C=C\C1CC(OC(=O)C4O3)C(C)O1)O5 (configuration not stated)
5.37 µM: [8]
inactive: [1] 2.54 µM | [2] 1.77 µM | [3] 3.13 µM | [5] 1.63 µM | [6] 1.86 µM | [59] 2.01 µM | [7] 7.46 µM | [9] 1.6 µM | [10] 7.76 µM | [11] 3.07 µM | [12] 2.39 µM | [13] 1.54 µM | [15] 3.45 µM | [17] 2.54 µM | [18] 13.9 µM | [19] 2.77 µM | [20] 2.83 µM | [21] 1.99 µM | [22] 1.87 µM | [24] 2.94 µM | [25] 1.54 µM | [26] 1.85 µM | [27] 3.2 µM | [28] 2.01 µM | [29] 1.8 µM | [30] 7.6 µM | [31] 2.03 µM | [33] 2.15 µM | [34] 7.45 µM | [35] 1.66 µM | [36] 2.01 µM | [37] 2.81 µM | [38] 2.21 µM | [39] 1.89 µM | [40] 17.7 µM | [41] 2.75 µM | [42] 2.02 µM | [43] 1.78 µM | [44] 2.45 µM | [45] 2.42 µM | [46] 2.94 µM | [47] 2.08 µM | [48] 1.77 µM | [49] 3.15 µM | [50] 2.11 µM | [51] 2.69 µM | [52] 2.97 µM | [53] 2.55 µM | [54] 4.47 µM | [55] 7.96 µM | [56] 1.33 µM | [58] 1.97 µM
active: [4] 0.39 µM | [14] 1.01 µM | [16] 0.344 µM | [23] 0.718 µM | [32] 1.06 µM | [57] 0.726 µM

Reference: ChEMBL document CHEMBL1201862, “PubChem BioAssay data set” (2004)
